The values below come from patent publication US6239132A, “Thrombin inhibitors” (Merck & Co., Inc., priority 2000, dated 2001).

This experiment deals with human α-thrombin (Homo sapiens, UniProt P00734). The experiment can be described thus: In vitro assay for determining proteinase inhibition: human α-thrombin. It is filed as biochemical. To be noted: 25° C., 0.05M TRIS buffer pH 7.4, 0.15M NaCl, 0.1% PEG; sar-PR-pna (or Z-GPR-afc for potent inhibitors); read-out: Inhibitory activity (Ki). As for the experimental part:
Examples of this group are listed below in Table 1. […] Values are as determined according to the in vitro assay described later in the specification.
In Vitro Assay for Determining Proteinase Inhibition
Assays of human α-thrombin and human trypsin were performed by the methods substantially as described in Thrombosis Research, Issue No. 70, page 173 (1993) by S. D. Lewis et al.
The assays were carried out at 25° C. in 0.05M TRIS buffer pH 7.4, 0.15M NaCl, 0.1% PEG. Trypsin assays also contained 1 mM CaCl2.
Concentrations of stock solutions of Z-GPR-afc were determined from measurements of absorbance at 380 nm of the 7-amino-4-trifluoromethyl coumarin produced upon complete hydrolysis of an aliquot of the stock solution by thrombin.
Times required to achieve equilibration between enzyme and inhibitor were determined in control experiments. Initial velocities of product formation in the absence (Vo) or presence of inhibitor (Vi) were measured. Assuming competitive inhibition, and that unity is negligible compared Km /[S], […] (where [S], [I], and e respectively represent the total concentrations, of substrate, inhibitor and enzyme), the equilibrium constant (Ki) for dissociation of the inhibitor from the enzyme can be obtained from the dependence of Vo /Vi on [I] shown in equation 1: […]
For `Cc1cc2c(c(=O)n1CC(=O)NCc1cc3cc[nH]c3cn1)NC(=O)OC2(CC1CC1)CC1CC1`, the Ki was less than 0.1 µM. For the compound `CCC1(CC)OC(=O)Nc2c1cc(C)n(CC(=O)NCc1ccc(N)nc1C)c2=O`, the inhibitory constant (Ki) is less than 0.1 µM. The same measure for `Cc1cc2c(c(=O)n1CC(=O)NCc1cc3cc[nH]c3cn1)NC(=O)OC2(C)C`: less than 0.1 µM; for `Cc1cc2c(c(=O)n1CC(=O)NCc1cccc(Cl)c1)NC(=O)OC2(C(C)C)C(C)C`: less than 0.1 µM.
